Results reported in patent US20220096475A1, “METHOD FOR TREATING SARCOIDOSIS-ASSOCIATED PULMONARY HYPERTENSION” (ALTAVANT SCIENCES GmbH, priority 2018, published 2022).

Experiments:
[1] = stability and shelf life of crystalline polymorphs; format: physicochemical; conditions: particularly at temperatures of less than 95° C.
TPH1 = biological target: T1, TPH1 (Mus musculus, UniProt P17532); conditions: amorphous form; cited from earlier work
T1 construct: from tissue; host or cells: mice (in vivo)
T1 sequence (P17532 1-447): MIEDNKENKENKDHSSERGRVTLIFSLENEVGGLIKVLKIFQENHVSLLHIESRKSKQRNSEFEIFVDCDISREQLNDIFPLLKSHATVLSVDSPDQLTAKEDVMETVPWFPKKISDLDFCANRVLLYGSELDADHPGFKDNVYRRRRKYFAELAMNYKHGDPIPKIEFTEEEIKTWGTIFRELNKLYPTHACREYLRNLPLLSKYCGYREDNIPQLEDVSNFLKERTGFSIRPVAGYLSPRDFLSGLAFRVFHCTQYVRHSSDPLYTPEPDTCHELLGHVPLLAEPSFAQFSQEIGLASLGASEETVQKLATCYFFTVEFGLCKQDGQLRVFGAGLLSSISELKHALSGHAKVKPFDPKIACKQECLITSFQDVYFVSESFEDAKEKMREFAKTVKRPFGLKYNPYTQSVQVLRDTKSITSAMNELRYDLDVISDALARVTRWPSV

## CCOC(=O)[C@@H]1CC2(CCN(c3cc(O[C@H](c4ccc(Cl)cc4-c4ccccc4)C(F)(F)F)nc(N)n3)CC2)CN1 [crystalline Form 3 polymorph, (S)-ethyl 8-(2-amino-6-((R)-1-(5-chloro-[1,1′-biphenyl]-2-yl)-2,2,2-trifluoroethoxy)pyrimidin-4-yl)-2,8-diazaspiro[4.5]decane-3-carboxylate]
[1]
  stability and shelf life compared to the crystalline Form 1 polymorph: substantially greater stability and shelf life

## CCOC(=O)[C@@H]1CC2(CCN(c3cc(O[C@H](c4ccc(Cl)cc4-c4ccccc4)C(F)(F)F)nc(N)n3)CC2)CN1 [Compound A, (S)-ethyl 8-(2-amino-6-((R)-1-(5-chloro-[1,1′-biphenyl]-2-yl)-2,2,2-trifluoroethoxy)pyrimidin-4-yl)-2,8-diazaspiro[4.5]decane-3-carboxylate]
TPH1
  efficacy in inhibiting TPH1 in mice: demonstrated
